# Measured values published in publication PMC7893915, “Assessing cross-resistance within the pyrethroids in terms of their interactions with key cytochrome P450 enzymes and resistance in vector populations” (Parasites & Vectors, 2021).
# Key:
# Helicoverpa armigera = test system: Helicoverpa armigera; parameters: method as in PMID 17685437; settings: pyrethroids with a polyfluorobenzyl group instead of the phenoxybenzyl group; ref [48]; cited from earlier work
# Ae. aegypti = assay: WHO adult susceptibility test on field samples, Ae. aegypti; format: in vivo, Aedes aegypti; settings: standard diagnostic doses
# Source text: The analyses conducted using data from An. gambiae (s.l.) samples were repeated using data from the An. funestus subgroup, An. arabiensis, An. coluzzii, An. funestus and An. gambiae samples (Additional file 2). The same approach was also used for susceptibility test data from Aedes albopictus and Ae. aegypti to investigate whether the same relationships could be detected in these vectors of arboviruses, as detailed in Additional file 3.
# Additional File 3: Cross-resistance to pyrethroids within wild populations of Aedes vectors […]
# If structural diversity within the pyrethroids is also associated with divergence in resistance within the Aedes vectors of arboviruses, this would lend weight to the findings for malaria vectors presented in the main manusc ript. Like the Anopheles vectors, target-site mutations and metabolic resistance are thought to be the main resistance mechanisms in Aedes mosquitoes. At least ten mutations in the Aedes aegypti Vgsc gene have been identified and the most widespread mutation, […]
# mutations and is also associated with DDT resistance. More recently, the V1016G mutation has been found in Ae. albopictus in Viet Nam and Italy, and both this allele and the F1534C and F1534S […]
# expression of cytochrome P450s has also been implicated in pyrethroid resistance within Aedes mosquitoes and there is evidence that metabolic resistance can confer cross -resistance to multiple pyrethroids. For example, over-expression of CYP9J28 is associated with metabolic resistance to […]
# target site- and P450-mediated resistance in Ae. aegypti strains found variation in resistance to seven pyrethroids and hypothesised that some patterns of resistance could be linked to structural differences, but also noted that general conclusions are challenging to make without a greater number of compounds with a single modification to compare. No studies of structure activity relationships using a wide range of pyrethroids and P450s from Aedes mosquitoes have been conducted to-date, but data on resistance in wild populations are available. A wider range of pyrethroids are more typically tested by studies of resistance in Aedes vectors, compared to Anopheles vectors, although these studies are also more varied in terms of diagnostic dose, bioass ay method and life cycle stage, making comparisons across studies difficult. Here we selected studies that used a common experimental design and investigated correlations in resistance to pairs of pyrethroids mirroring part of the work on Anopheles vectors presented in the main manuscript.
# We identified all instances within a public insecticide resistance database where an Aedes field sample had been subdivided among tests for different pyrethroids. We then identified the most commonly used bioassay type across the new pyrethroid dataset, which was the WHO adult susceptibility test as described for malaria vectors, and the most commonly used diagnostic dose for […]
# each compound (Table S2). […]
# removed. Paired results were then extracted, and the mean values for the Pearson’s correlation coefficient were calculated for each pyrethroid pair using 1,000 bootstaps in SPSS Statistics v25.
# Table S5. Diagnostic doses and data volumes for each pyrethroid.
# Pyrethroid Most common dose Number of data points
# The number of data points available for each pyrethroid from an Ae. aegypti sample that was used to test at least one other pyrethroid, using standard WHO susceptibility tests and standard diagnostic doses, is given.
# Anopheles sinensis = test system: Anopheles sinensis; parameters: method as in PMID 24159535; settings: resistance ratios using LC50 values from a susceptible strain; most susceptible to bifenthrin, cyfluthrin and etofenprox, in that order; ref [55]; cited from earlier work
# Gambiae Complex = settings: ID 100156; F0, larval collection, 5/2009-4/2010, Chano, Ethiopia; WHO Bioassay 1998; ref Massebo F et al. Parasites Vectors. 2013;6; cited from earlier work
# [1] = test system: An. funestus strain, FUMOZ-R; parameters: method as in PMID 26930058; settings: strain with upregulated P450 levels without any target-site mutations; ref [47]; cited from earlier work
SMILES,"effect on cross-resistance, in words (Helicoverpa armigera)","Mean percent mortality (SE) (Ae. aegypti; Pair 2 cyfluthrin vs etofenprox, N 22 paired Ae. aegypti samples)","Mean percent mortality (SE) (Ae. aegypti; Pair 5 permethrin vs cyfluthrin, N 79 paired Ae. aegypti samples)","Mean percent mortality (SE) (Ae. aegypti; Pair 7 λ-cyhalothrin vs cyfluthrin, N 25 paired Ae. aegypti samples)","Mean percent mortality (SE) (Ae. aegypti; Pair 10 deltamethrin vs cyfluthrin, N 72 paired Ae. aegypti samples)","susceptibility of larvae, rank in words (Anopheles sinensis)",mortality (Gambiae Complex),"effectiveness with or without piperonyl butoxide (PBO), in words [1]"
Cc1c(F)c(F)c(COC(=O)[C@@H]2[C@H](/C=C(\Cl)C(F)(F)F)C2(C)C)c(F)c1F (racemic) [tefluthrin],overcame most of this resistance,,,,,,,
CC1(C)C(C=C(Cl)Cl)C1C(=O)OC(C#N)c1ccc(F)c(Oc2ccccc2)c1 (stereo not drawn) [cyfluthrin],,87.78 (3.56) percent,89.27 (1.61) percent,85.01 (3.81) percent,88.58 (1.73) percent,most susceptible,50,
CC1(C)[C@H](C=C(Cl)Cl)[C@H]1C(=O)OCc1c(F)c(F)cc(F)c1F [transfluthrin],overcame most of this resistance,,,,,,,effective in the absence of the generic P450 inhibitor
